Experimental data published in patent publication US10174120B2, “Methods and compositions for treating solid tumors and enhancing tumor vaccines” (THE TRUSTEES OF THE UNIVERSITY OF PENNSYLVANIA, priority 2007, dated 2019).
Entries after “also recorded” stand apart in the source; their conditions may differ.

What was measured:
[1] = system: HUVEC; experiment: Reactive oxidative species (ROS) quantified in HUVEC; assay type: cell-based, human; details: for ROS in HUVEC: exposure to rhET-1, with or without BQ788
Description: (§1) To further test the role of ETRB signaling in adhesion, the effects of NO antagonist L-NAME and NO donor DETANO were tested under the above experimental conditions. […] Thus, ET-1, through ETRB, downregulates the ability of endothelium to respond to inflammatory signals present in the tumor microenvironment such as TNF-α, which is restored by blocking ETRB through BQ788. Further, an NO antagonist abrogated the effects of ET-1, while NO donor reproduced its effect, showing that NO plays a role in the inhibitory effect of ET-1. To further test whether ETRB signaling upregulates NO in endothelial cells, reactive oxidative species (ROS) were quantified in HUVEC.

[2] = system: HUVEC; experiment: Adhesion of activated T cells to pretreated HUVEC; assay type: cell-based, human; details: for T cell adhesion to HUVEC in the presence of TNF- and ET-1: NO antagonist / NO donor under the same experimental conditions; for adherence of activated human T cells to HUVEC: T cells activated with PMA or CD3/CD28, Endothelin plus BQ-788 compared to Endothelin alone, Endothelin and ETRA antagonist, or untreated
Description: (§2) Human vascular endothelial cells (HUVEC) were grown to 70% confluence in EBM media then treated with 50 nM Endothelin receptor B inhibitor BQ-788 (American peptide), or 2.5 nm Endothelin alone or in the presence of either 50 nm Endothelin receptor A inhibitor BQ123 (American peptide), or 50 nM Endothelin receptor B inhibitor BQ-788. Alternatively cells were treated with BQ-788 alone. Media was changed every 48 hrs for a total of 6 days. After 6 days cells were harvested for RNA, flow cytometry or incubated activated T cells. T cells were activated for 48 hours with either 5 ng/ml PMA […] or CD3 and CD28 beads. After activation T cells were labeled with CFSE and then incubated with pretreated endothelial cells for 2 hours with shaking. Cells were then washed 3× with PBS and adhesions was determined using a fluorescent plate reader.
The ability of activated T cells to adhere to BQ-788-treated HUVEC was also tested. […] T cell adherence to BQ788/Endothelin-treated HUVEC was 40% as effective as TNF-alpha activation of HUVEC. Thus, under the conditions utilized, BQ788 induces expression of ICAM-1 on endothelial cells and leads to increased T cell adhesion to tumor endothelium, playing a role in its increase of intratumoral T cells and enhancement of vaccine efficacy.
as §1

[3] = system: ID8 flank tumors; experiment: ID8 flank tumor model, BQ788 as tumor vaccine adjuvant (tumor growth); assay type: in vivo, mice
Description: (§3) Two injections of 5×10 6th UV irradiated ID8 ovarian cancer cells were injected sub-cutaneously in C57Bl6 mice one week apart. Vaccinated mice and non-vaccinated controls were injected with 5×10^6 ID8 cells in the flank with […] matrigel or intraperitoneally. Tumors were allowed to grow for 2 or 5 weeks as indicated, and then treated with intraperitoneal injections of BQ-788 (300 mcg) or control peptide for 2 weeks.
The murine epithelial ovarian cancer cell line ID8, syngeneic to C57BL/6 mice was cultured in DMEM supplemented with 4% FBS, 13 ITS media supplement (bovine insulin (5 mg/L), human transferrin (5 mg/L), and sodium selenite ([…]); Sigma), and antibiotics.
(§4) Female C57BL/6 mice (8 weeks of age) were injected 3 times […]. with 1×10^6 UV-treated, apoptotic ID8 ovarian cancer cells (resuspended in 500 microliter (mcL) DMEM without supplements) in the flank. For the orthotopic, intraperitoneal model, mice were injected i.p. with 5×10^6ID8 cells.
To confirm that ETRB plays a role in inhibiting T cell homing to human ovarian cancers, the ID8 syngeneic mouse model of ovarian cancer was utilized. This model responds modestly to potent dendritic cell (DC) vaccination. Strong expression of ETRB was detected in tumor endothelium in ID8 flank tumors by IHC (FIG. 7). […]

[4] = system: ID8 flank tumors; experiment: T cell infiltration into ID8 flank tumors (IHC, flow cytometry); assay type: in vivo, mice
Description: as §3
FACS analysis was performed using APC-CD45 (BD Pharmingen), PE-anti CD3, FITC anti CD4, and Biotin anti-CD8 coupled with streptavid PE-Cy7.
(§5) To confirm that ETRB plays a role in inhibiting T cell homing to human ovarian cancers, the ID8 syngeneic mouse model of ovarian cancer was utilized. This model responds modestly to potent dendritic cell (DC) vaccination. Strong expression of ETRB was detected in tumor endothelium in ID8 flank tumors by IHC (FIG. 7). Mice were vaccinated with a suboptimal preventive vaccine, containing UV-treated ID8 cells, which results in induction of systemic tumor-reactive interferon-gamma secreting T cells without significant delay in tumor growth Following vaccination, mice were inoculated with flank tumors, which were allowed to engraft for 2 or 5 weeks, and then mice were treated i.p. with the ETRB antagonist peptide, BQ-788, […] (SEQ ID No: 90), every 2nd day for 2 weeks or with control peptide that was a scrambled version of the above peptide. Additional controls included non-vaccinated animals treated with BQ-788 or control peptide. To confirm that the above vaccination scheme results in significant increase in the frequency of systemic tumor-reactive T cells, CD3^+/CD8^+ splenocytes from vaccinated animals treated with BQ-788 or control peptide, and from non-vaccinated mice, were labeled with CFSE and incubated with DC pulsed with UV-radiated ID8 for 6 days to assess proliferation. […] Proliferation of lymphocytes from vaccinated mice treated with BQ-788 or control peptide was similar.
Tumor growth delay was not observed in non-vaccinated mice treated with BQ-788 or in vaccinated mice treated with control peptide. […] Flow cytometry from mechanically dissected tumors confirmed the results observed with IHC: In non-vaccinated animals treated with BQ-788 as well as in vaccinated animals treated with control peptide, CD3^+ cells represented on average 4% of the cells (range 0.5 to 12%), while vaccinated animals treated with BQ-788, CD3^+ cells represented 15% of the cells (range 8 to 30%), containing both CD4^+ and CD8^+ cells (FIG. 8).

[5] = system: CD3+/CD8+ splenocytes; experiment: T cell proliferation assay, CFSE-labeled splenocytes with DC pulsed with UV-radiated ID8; assay type: cell-based, mice; details: BQ-788 versus control peptide, 6 days with ID8-pulsed DC
From the text: as §5

[6] = system: ID8 cells; experiment: CTL assay, lysis of ID8 cells by CD3+/CD8+ splenocytes; assay type: cell-based, mice; details: splenocytes from vaccinated animals treated with BQ-788
[7] = system: intraperitoneal ID8 cells; experiment: Orthotopic, intraperitoneal ID8 model of ovarian cancer (ascites, survival); assay type: in vivo, mice; details: vaccinated animals, BQ-788 every 2nd day for 2 weeks from two weeks after i.p. ID8, versus control peptide
Description: as §3, §4
The impact of BQ-788 on survival in vaccinated animals was also tested in the orthotopic, intraperitoneal ID8 model of ovarian cancer. Following vaccination, mice were injected i.p. with ID8 cells. Two weeks later, animals received either BQ-788 or control peptide every 2nd day for 2 weeks.

[8] = system: HUVEC; experiment: HUVEC treated with Endothelin and BQ-788: morphology and qRT-PCR; assay type: cell-based, human; details: for morphology of HUVEC: BQ-788 in the presence of Endothelin, 6 days
Description: qRT-PCR was performed using primers to the 3′ end of transcripts spanning intron-exon boundaries whenever possible for 35 cycles using Sybergreen® (ABI, Foster City, Calif.), with primers at 150 nM concentrations. Primers were 18-24 nucleotides and were designed to have a TM of 59-61° C. All transcripts were confirmed using 3% agarose gel electrophoresis. Gene expression was normalized against β-actin in all studies unless stated otherwise.
as §2
Next, the effect of BQ-788 on human and murine endothelial cells or T cells was tested in the presence or absence of ET-1 ligand. In addition, the effect of endothelin receptor A antagonist BQ123 was tested. […] Moreover, there was a decrease in the expression of VE-Cadherin mRNA in BQ788-treated cells (FIG. 9).

CC[C@H](C)[C@H](NC(=O)[C@H](CC(=O)O)NC(=O)[C@H](CC(C)C)NC(=O)[C@H](Cc1c[nH]cn1)NC(=O)[C@@H]1CSSC[C@H](N)C(=O)N[C@@H](CO)C(=O)N[C@H]2CSSC[C@H](NC(=O)[C@H](CCC(=O)O)NC(=O)[C@H](CCCCN)NC(=O)[C@H](CC(=O)O)NC(=O)[C@H](CCSC)NC(=O)[C@H](CC(C)C)NC(=O)[C@H](CO)NC(=O)[C@H](CO)NC2=O)C(=O)N[C@@H](C(C)C)C(=O)N[C@@H](Cc2ccc(O)cc2)C(=O)N[C@@H](Cc2ccccc2)C(=O)N1)C(=O)N[C@H](C(=O)N[C@@H](Cc1c[nH]c2ccccc12)C(=O)O)[C@@H](C)CC [rhET-1]
ROS in HUVEC [1]: upregulated ROS

COC(=O)[C@@H](N)CCCNC(=N)N[N+](=O)[O-] [L-NAME]
T cell adhesion to HUVEC in the presence of TNF- and ET-1 [2]: restored T cell adhesion

CCCC[C@@H](NC(=O)[C@@H](Cc1cn(C(=O)OC)c2ccccc12)NC(=O)[C@H](CC(C)(C)C)NC(=O)N1[C@H](C)CCC[C@@H]1C)C(=O)O [BQ-788]
tumor growth delay ([3]; non-vaccinated mice treated with BQ-788): not observed
tumor growth ([3]; vaccinated mice, i.p. BQ-788 every 2nd day for 2 weeks, starting at 2 or at 5 weeks after engraftment): significant reduction in tumor growth
numbers of CD3+, CD8+ T cells in tumors, FACS analysis ([4]; BQ788 treated animals as compared to control animals): increased numbers of CD3^+, CD8^+ T cells
intratumoral CD8+ T cells (IHC) ([4]; non-vaccinated animals treated with BQ-788): scarce intratumoral CD8^+ T cells
CD3+ cells as share of the cells of dissected tumors, flow cytometry, average ([4]; non-vaccinated animals treated with BQ-788, stated together with vaccinated animals treated with control peptide): 4%
CD3+ cells as share of the cells of dissected tumors, flow cytometry ([4]; vaccinated animals treated with BQ-788): 15%
intratumoral CD8+ T cells (IHC) ([4]; vaccinated mice treated with BQ-788): very strong infiltration by CD8^+ T cells
intratumoral CD8+ T cells (IHC) ([4]; vaccinated mice treated with BQ-788, listed as BQ788): significant numbers of CD8^+ T cells
proliferation of lymphocytes from vaccinated mice [5]: similar
ID8 cell killing by CD3+/CD8+ splenocytes [6]: robust ID8 cell killing
ascites development [7]: developed ascites later
survival [7]: significant prolongation of survival
mRNA levels for ICAM-2, ICAM-3, E-selectin, JAM, CXCL-11, CCL-19, or CCL-21 ([8]; BQ788-treated HUVEC): No specific changes were detected
expression of VE-Cadherin mRNA ([8]; BQ788-treated HUVEC in the presence of Endothelin): decrease; also recorded: decreased expression of VE-Cadherin
morphology of HUVEC [8]: distinct morphological change
morphology of HUVEC ([8]; listed as BQ788): Morphologic changes
increased expression of ICAM-1 mRNA, qRT-PCR ([8]; Endothelin and BQ-788 compared to untreated HUVEC, Endothelin alone, or Endothelin plus ETRA antagonist): over 7 fold
expression of ICAM1, qRT-PCR (in words) ([8]; Endothelin+BQ788-treated HUVEC as compared to Endothelin alone or BQ788 alone): increased expression of ICAM1
T cell adherence relative to TNF-alpha activation of HUVEC ([2]; BQ788/Endothelin-treated HUVEC): 40%
adherence of activated human T cells to HUVEC [2]: increased adherence
adherence of activated human T cells to HUVEC ([2]; listed as BQ788): increased ability of T cells to adhere
suppression of ROS compared with bacterial LPS ([1]; HUVEC exposed to ET-1): as potent as bacterial LPS
ROS in HUVEC [1]: abrogated such response to ET-1

NCCN(CCN)/[N+]([O-])=N/O [DETANO]
T cell adhesion to HUVEC in the presence of TNF- and ET-1 [2]: mimicked the effects of ET-1
